# Laboratory results: US10653717B2, “Antibiotic compositions” (priority 2016, dated 2020)
# Columns and labels:
# [1] = system: PA-1: Pseudomonas aeruginosa 1298#; assay: MIC of silver with antibiotics on clinical isolated MDR Gram-negative bacteria; format: cell-based; settings: antibiotic 4 μM
# Protocol: (§1) There are five clinically most difficult-to-treat MDR Gram-negative pathogen species: Klebsiella pneumonia, Acinetobacter baumannii, Pseudomonas aeruginosa, Enterobacter cloacae and Escherichia coli. One strain from each species was isolated, and overnight cultures were diluted 1:1000 times in LB medium, and treated with serial concentrations of Ag^+ and antibiotics in combinations for 24 h (Table 10).
# (§2) Five clinical isolated MDR Gram-negative strains were grown until an OD600 nm of 0.4, and were diluted 1:1,000 into 100 μl LB medium in 96 micro-well plates. […] The cultures treated with the same serial dilutions of 100 μl ebselen and silver nitrate were used as the positive control.
# [2] = system: ECO-1: Escherichia coli 1139#; assay: as above; format: cell-based; settings: antibiotic 4 μM
# Protocol: as §1, §2
# [3] = system: AB-1: Acinetobacter baumannii H#; assay: as above; format: cell-based; settings: antibiotic 4 μM
# Protocol: as §1, §2
# ECL-2: E. cloacae 2301# [4] = assay: as above; format: cell-based, Enterobacter cloacae; settings: antibiotic 4 μM
# Protocol: as §1, §2
# [5] = system: KP-2: K. pneumonia subsp. pneumonia 0322#; assay: as above; format: cell-based, Klebsiella pneumonia; settings: antibiotic 4 μM
# Protocol: as §1, §2
# [6] = system: AB-1: Acinetobacter baumannii H#; assay: Drug sensitivity of clinical isolated strain; format: cell-based; further: key: R: resistant; S: sensitive
# AB-2: A. baumannii 0361# = assay: Drug sensitivity of clinical isolated strain; format: cell-based, Acinetobacter baumannii; settings: AB-2 (Table 3); further: key: R: resistant; S: sensitive
# ECO-3: E. coli ZY-1 = assay: Drug sensitivity of clinical isolated strain; format: cell-based, Escherichia coli; further: key: R: resistant; S: sensitive
# ECL-2: E. cloacae 2301# [7] = assay: Drug sensitivity of clinical isolated strain; format: cell-based, Enterobacter cloacae; further: key: R: resistant; S: sensitive
# [8] = system: PA-1: Pseudomonas aeruginose 1298#; assay: Drug sensitivity of clinical isolated strain; format: cell-based, Pseudomonas aeruginosa; further: key: R: resistant; S: sensitive
# [9] = system: PA-2: P. aeruginose 0009#; assay: Drug sensitivity of clinical isolated strain; format: cell-based, Pseudomonas aeruginosa; settings: PA-2 (Table 3); further: key: R: resistant; S: sensitive
# ECO-2: E. coli 2219# = assay: Drug sensitivity of clinical isolated strain; format: cell-based, Escherichia coli; settings: ECO-2 (Table 3); further: key: R: resistant; S: sensitive
# [10] = system: ECO-1: Escherichia coli 1139#; assay: Drug sensitivity of clinical isolated strain; format: cell-based; further: key: R: resistant; S: sensitive
# [11] = system: ECL-1: Enterobacter cloacae 0431#; assay: Drug sensitivity of clinical isolated strain; format: cell-based; settings: ECL-1 (Table 3); further: key: R: resistant; S: sensitive
# [12] = system: KP-2: K. pneumonia subsp. pneumonia 0322#; assay: Drug sensitivity of clinical isolated strain; format: cell-based, Klebsiella pneumonia; further: key: R: resistant; S: sensitive
# [13] = system: KP-1: Klebsiella pneumonia subsp. pneumonia 13#; assay: Drug sensitivity of clinical isolated strain; format: cell-based; settings: KP-1 (Table 3); further: key: R: resistant; S: sensitive
# GSH = GSH amount in treated E. coli cell extracts, GR-coupled DTNB reduction; format: cell-based, Escherichia coli; settings: 5 μM Ag^+ and 80 μM antibiotic; 10 min; compared with antibiotics themselves
# wild type E. coli DHB4 = assay: MIC of nine antibiotics and silver in combinations on E. coli DHB4; format: cell-based, Escherichia coli; settings: 24 h
# Protocol: E. coli DHB4 overnight cultures were diluted 1:1000 times in Luria Bertani (LB) medium, and treated with serial dilutions of ionic silver (Ag^+) as a nitrate salt and 9 antibiotics in combinations, separately, for 24 h.
# E. coli DHB4 from frozen stock were grown overnight at 37° C., 400 rpm. The overnight culture was diluted 1:100 with 5 ml of LB medium in 15 ml tubes and incubated at 37° C. at 400 rpm. Cells were grown until an OD600 nm of 0.4 and were used for antibiotic treatment. Briefly, cells were diluted 1:1,000 into 100 μl of LB medium in 96 micro-well plates. […] The minimum inhibition concentration (MIC) was determined as the lowest concentration of drugs that inhibited 90% of growth compared to the untreated cells after 24 h culture at 37° C. The cultures treated with the same serial dilutions of 100 μl ebselen and silver nitrate were used as the positive control.
# E. coli = assay: Degree of synergy, Bliss Independence Model; format: cell-based, Escherichia coli; settings: 5 μM AgNO3 with 80 μM antibiotic; 1 and 4 h
Molecule,MIC of silver in the presence of different antibiotics [1] [µM],MIC of silver in the presence of different antibiotics [2] [µM],MIC of silver in the presence of different antibiotics [3] [µM],Drug sensitivity ([6]; AB-1 (Table 3)),Drug sensitivity ([6]; AB-1 (table of Example 3)),Drug sensitivity (AB-2: A. baumannii 0361#),Drug sensitivity (ECO-3: E. coli ZY-1; E. coli ZY-1 (Table 7)),Drug sensitivity (ECO-3: E. coli ZY-1; ECO-3 (Table 3)),Drug sensitivity (ECL-2: E. cloacae 2301# [7]; ECL-2 (Table 3)),Drug sensitivity (ECL-2: E. cloacae 2301# [7]; ECL-2 (table of Example 3)),Drug sensitivity ([8]; PA-1 (Table 3)),Drug sensitivity ([8]; PA-1 (table of Example 3)),Drug sensitivity [9],Drug sensitivity (ECO-2: E. coli 2219#),Drug sensitivity ([10]; ECO-1 (Table 3)),Drug sensitivity ([10]; ECO-1 (table of Example 3)),Drug sensitivity [11],Drug sensitivity ([12]; KP-2 (Table 3)),Drug sensitivity ([12]; KP-2 (table of Example 3)),Drug sensitivity [13],further results
NC[C@H]1O[C@H](O[C@H]2[C@H](O)[C@@H](O[C@H]3O[C@H](CO)[C@@H](O)[C@H](N)[C@H]3O)[C@H](N)C[C@@H]2N)[C@H](O)[C@@H](O)[C@@H]1O [Kanamycin],80,40,80,–,–,–,–,–,–,–,–,–,–,–,–,–,–,–,–,–,MIC of silver in the presence of different antibiotics (ECL-2: E. cloacae 2301# [4]): 160 µM; MIC of silver in the presence of different antibiotics [5]: 160 µM
CN(C)[C@@H]1C(O)=C(C(N)=O)C(=O)[C@@]2(O)C(O)=C3C(=O)c4c(O)cccc4[C@@](C)(O)[C@H]3C[C@@H]12 [Tetracycline],80,80,80,R,R,R,R,S,R,R,R,R,R,S,R,R,R,–,–,–,–
CN[C@@H]1[C@@H](O)[C@@H](O[C@@H]2[C@@H](O)[C@H](O[C@H]3O[C@H]([C@@H](C)O)[C@@H](O)[C@H](O)[C@H]3N)[C@@H](N)C[C@H]2N)OC[C@]1(C)O [Geneticin],80,40,80,–,–,–,–,–,–,–,–,–,–,–,–,–,–,–,–,–,MIC of silver in the presence of different antibiotics (ECL-2: E. cloacae 2301# [4]): 160 µM; MIC of silver in the presence of different antibiotics [5]: 160 µM
C[C@H]1COc2c(N3CCN(C)CC3)c(F)cc3c(=O)c(C(=O)O)cn1c23 [Levofloxacin],–,–,–,R,R,R,S,–,R,R,R,R,R,R,R,R,R,R,R,R,–
C[C@@H](O)[C@H]1C(=O)N2C(C(=O)O)=C(S[C@@H]3CN[C@H](C(=O)N(C)C)C3)[C@H](C)[C@H]12 [Meropenem],–,–,–,R,R,R,S,S,R,R,R,R,R/S,S,S,S,S,S,S,R,–
NCC[C@H](O)C(=O)N[C@@H]1C[C@H](N)[C@@H](O[C@H]2O[C@H](CN)[C@@H](O)[C@H](O)[C@H]2O)[C@H](O)[C@H]1O[C@H]1O[C@H](CO)[C@@H](O)[C@H](N)[C@H]1O [Amikacin],–,–,–,R,R,R,S,S,S,S,S,S,R,S,S,S,S,S,S,R,–
Gentamicin,40,40,80,R,R,R,S,S,R,R,S,S,R,R,S,S,R,R,R,R,total GSH amount in cell extracts (GSH): slightly deplete; Antibacterial effect as MIC of antibiotic and silver (wild type E. coli DHB4; listed as head Silver (μM) 0): 40 µM; Antibacterial effect as MIC of antibiotic and silver (wild type E. coli DHB4; listed as head Silver (μM) 1): 20 µM; Antibacterial effect as MIC of antibiotic and silver (wild type E. coli DHB4; listed as head Silver (μM) 2): 2.5 µM; Antibacterial effect as MIC of antibiotic and silver (wild type E. coli DHB4; listed as head Silver (μM) 4): 1.25 µM; activity with silver on E. coli DHB4 growth (wild type E. coli DHB4; serial dilutions of Ag^+ and antibiotic): synergistic activity; degree of synergy with Ag^+ (Bliss model) (E. coli): synergistic combinations; MIC of silver in the presence of different antibiotics (ECL-2: E. cloacae 2301# [4]): 160 µM; MIC of silver in the presence of different antibiotics [5]: 160 µM
CC(C)(O/N=C(\C(=O)N[C@@H]1C(=O)N2C(C(=O)[O-])=C(C[n+]3ccccc3)CS[C@H]12)c1csc(N)n1)C(=O)O [Ceftazidime],–,–,–,R,R,R,S,S,R,R,R,R,R,R,R/S,R/S,R,R,R,R,–
